Assay results as given in patent US5373020A, “Substituted 5-(2-((2-aryl-2-hydroxyethyl)amino)propyl)-1,3-benzodioxoles” (American Cyanamid Company, priority 1993, dated 1994).
Counter-ions that a name gives are not always drawn.

Key:
db/db mice = assay: Plasma glucose, compound in chow, diabetic mice; assay type: in vivo, mouse (C57 B1/KsJ db/db)
Procedure: (§1) The compounds of this invention were tested for hypoglycemic and anti-obesity activity according to the following procedure.
(§2) Obese mice (C57 B1/6J (ob/ob)), and/or diabetic mice (C57 B1/KsJ (db/db)) were obtained from Jackson Laboratories, Bar Harbor, Maine. Obese rats (fa/fa) were obtained from Charles River Laboratories, Wilmington, Mass. Obese mice were 8 weeks of age and diabetic mice were 9 weeks of age at the start of the test. Obese rats were 12-14 weeks of age at the start.
(§3) The test compounds were dissolved in methanol, mixed with powdered Purina rodent chow on a weight of compound to weight of chow basis and thoroughly dried.
(§4) Groups of 6 control mice or rats received vehicle (methanol) treated chow.
(§5) Groups of 6 test mice were fed ad libitum for up to seven weeks and food consumption was measured daily by weighing the food bins before and after the addition of fresh chow. Thus, a 40 g mouse, fed the test compound at a concentration of 0.02 percent of the diet, would receive a dose of 20 mg/kg/day if it ate 4 g of chow per day.
(§6) The mice or rats were weighed before the first treatment and once at the end of each indicated treatment period.
Blood samples were collected before the first treatment and once at the end of each indicated treatment period by retro-orbital puncture using heparinized capillary tubes.
Plasma was separated by centrifugation in a Beckman microfuge for 5 minutes. Plasma glucose concentrations were determined with the Beckman glucose analyzer which uses a glucose oxidase method.

ob/ob mice = assay: Change in weight and food consumption, compound in chow, obese mice; assay type: in vivo, mouse (C57 B1/6J ob/ob)
Procedure: as §1, §2, §3, §4, §5, §6

[1] = dose 0.0005 % wt of chow, week 1
[2] = dose 0.002 % wt of chow, week 1
[3] = dose 0.005 % wt of chow, week 1

SMILES: COC(=O)C1(C(=O)OC)Oc2ccc(C[C@@H](C)NC[C@H](O)c3cccc(Cl)c3)cc2O1 (stereo in doubt) [CL1, (R* R*)-(±)-5-(2-((2-(3-chlorophenyl)-2-hydroxyethyl)amino)propyl)-1,3-benzodioxole-2,2-dicarboxylic acid, dimethyl ester hydrobromide]
- Plasma Glucose Levels (db/db mice; dose 0.0005 % wt of chow, week 0 (before treatment)): 452 mg/100 ml
- Plasma Glucose Levels (db/db mice; [1]): 162 mg/100 ml
- Plasma Glucose Levels (db/db mice; dose 0.0005 % wt of chow, week 5): 164 mg/100 ml
- Plasma Glucose Levels (db/db mice; dose 0.0005 % wt of chow, week 7): 17 mg/100 ml
- Plasma Glucose Levels (db/db mice; dose 0.002 % wt of chow, week 0 (before treatment)): 453 mg/100 ml
- Plasma Glucose Levels (db/db mice; [2]): 151 mg/100 ml
- Plasma Glucose Levels (db/db mice; dose 0.002 % wt of chow, week 5): 150 mg/100 ml
- Plasma Glucose Levels (db/db mice; dose 0.002 % wt of chow, week 7): 16 mg/100 ml
- Plasma Glucose Levels (db/db mice; dose 0.005 % wt of chow, week 0 (before treatment)): 447 mg/100 ml
- Plasma Glucose Levels (db/db mice; [3]): 148 mg/100 ml
- Plasma Glucose Levels (db/db mice; dose 0.005 % wt of chow, week 5): 138 mg/100 ml
- Plasma Glucose Levels (db/db mice; dose 0.005 % wt of chow, week 7): 18 mg/100 ml
- Average Daily Food Consumption (ob/ob mice; dose 0.0005 % wt of chow): 5.6 g/animal
- Change in weight (ob/ob mice; [1]): 0.5 grams
- Change in weight (ob/ob mice; dose 0.0005 % wt of chow, week 2): 2.2 grams
- Change in weight (ob/ob mice; dose 0.0005 % wt of chow, week 3): 3.2 grams
- Change in weight (ob/ob mice; dose 0.0005 % wt of chow, week 4): 5.2 grams
- Average Daily Food Consumption (ob/ob mice; dose 0.002 % wt of chow): 5.6 g/animal
- Change in weight (ob/ob mice; [2]): -0.3 grams
- Change in weight (ob/ob mice; dose 0.002 % wt of chow, week 2): 1.1 grams
- Change in weight (ob/ob mice; dose 0.002 % wt of chow, week 3): 1.6 grams
- Change in weight (ob/ob mice; dose 0.002 % wt of chow, week 4): 3.2 grams
- Average Daily Food Consumption (ob/ob mice; dose 0.005 % wt of chow): 5.8 g/animal
- Change in weight (ob/ob mice; [3]): -1.1 grams
- Change in weight (ob/ob mice; dose 0.005 % wt of chow, week 2): -0.7 grams
- Change in weight (ob/ob mice; dose 0.005 % wt of chow, week 3): -0.2 grams
- Change in weight (ob/ob mice; dose 0.005 % wt of chow, week 4): 1.6 grams
